Measured values published in patent publication US9586986B2, “Substituted 7-deazapurine ribonucleosides for therapeutic uses” (Institute of Organic Chemistry and Biochemistry ASCR, v.v.i., priority 2014, dated 2017).
Where two headings read alike, the source gives them in different places.

Tests used:
Type in all cases: cell-based
HCT116 = assay: Cytostatic/cytotoxic MTT assay, HCT116; conditions: Homo sapiens, read-out: MTT, IC50 HCT116
Text: (§1) Unless otherwise stated, all cells were purchased from the […] (ATCC). The CCRF-CEM line is derived from T lymphoblastic leukemia, evincing high chemosenzitivity, K562 represent cells from a […] patient sample with bcr-abl translocation, HCT116 is colorectal tumor cell line and its p53 gene knock-down counterpart (HCT116p53−/−, Horizon Discovery, UK) is a model of human cancers with p53 inactivation frequently associated with poor prognosis, A549 cell line is lung adenocarcinoma. The daunorubicin resistant subline of CCRF-CEM cells (CEM-DNR bulk) and paclitaxel resistant subline K562-TAX were selected in our laboratory by cultivation of maternal cell lines in increasing concentrations of daunorubicine or paclitaxel, respectively. The CEM-DNR cells overexpress mrp-1 and mdr-1 genes, while K562-TAX cells overexpress mdr-1 only. Both proteins belong to the family of ABC transporters and are involved in the primary and/or acquired multidrug resistance phenomenon (ref.: Gottesman, M. M.; Fojo, T.; Bates, S. E. Multidrug resistance in cancer: role of ATP-dependent transporters. Nat. Rev. Cancer. 2002, 2, 48-58. (b) Noskova, V.; Dzubak, P.; Kuzmina, G.; Ludkova, A.; Stehlik, D.; Trojanec, R.; Janostakova, A.; Korinkova, G.; Mihal, V.; Hajduch, M. In vitro chemoresistance profile and expression/function of MDR associated proteins in resistant cell lines derived from CCRF-CEM, K562, A549 and MDA MB 231 parental cells. Neoplasma 2002, 49, 418-425). Non-malignant MRC-5 and BJ cells, derived from normal human fibroblasts, were used as controls. The cells were maintained in Nunc/Corning 80 cm^2 plastic tissue culture flasks and cultured in cell culture medium (DMEM/RPMI 1640 with 5 g/L glucose, 2 mM glutamine, 100 U/mL penicillin, 100 µg/mL streptomycin, 10% fetal calf serum, and NaHCO3). Cell suspensions were prepared and diluted according to the particular cell type and the expected target cell density (25,000-30,000 cells/well based on cell growth characteristics). Cells were added by pipette (80 L) into 96-well microtiter plates. Inoculates were allowed a pre-incubation period of 24 h at 37° C. and 5% CO2 for stabilization. Four-fold dilutions, in 20-L aliquots, of the intended test concentration were added to the microtiter plate walls at time zero. All test compound concentrations were examined in duplicate. Incubation of the cells with the test compounds lasted for 72 h at 37° C., in a 5% CO2 atmosphere at 100% humidity. At the end of the incubation period, the cells were assayed using MTT. Aliquots (10 L) of the MTT stock solution (5 mg/ml) were pipetted into each well and incubated for another 1-4 h. After this incubation period the formazan produced was dissolved by addition of 100 µL/well of 10% aq SDS (pH 5.5), followed by a further incubation at 37° C. overnight. The optical density was measured at 540 nm. The IC50 value, the drug concentration inhibiting the cell growth by 50%, was calculated from appropriate dose-response curves.
(§2) In vitro cytotoxic/cytostatic activity final nucleosides 1-5 was initially evaluated against […] cell lines derived from human solid tumors including lung (A549 cells) and colon (HCT116 and HCT116p53−/−) carcinomas, as well as leukemia cell lines (CCRF-CEM, CEM-DNR, K562 and K562-TAX) and, for comparison, non-malignant BJ and MRC-5 fibroblasts. Concentrations inhibiting the cell growth by 50% (IC50) were determined using a quantitative metabolic staining with 3-(4,5-dimethylthiazol-2-yl)-2,5-diphenyltetrazolium bromide (MTT) (ref.: Denizot, F.; Lang, R. Rapid colorimetric assay for cell growth and survival: Modifications to the tetrazolium dye procedure giving improved sensitivity and reliability. J. Immunol. Meth. 1986, 89, 271-277) following a 3-day treatment.
Multidrug resistance is a major therapeutic problem in cancer chemotherapy. […]

HeLa S3 = assay: XTT cytotoxicity assay, HeLa S3; conditions: Homo sapiens, read-out: XTT, IC50 HeLa S3
Protocol: (§3) HL-60, Hela S3 and HepG2 cell lines (ATCC) were grown in RPMI-1640 or DMEM medium supplemented with 10% fetal calf serum, […] of streptomycin, 200 U/mL of penicillin G and 4 mM glutamine in a humidified atmosphere containing 5% CO2 at 37° C. Sensitivity of these cell lines to the synthesized compounds was assessed with the use of XTT cell proliferation kit II (Roche Diagnostics GmbH, Mannheim, Germany) according to the manufacturer's instructions. Briefly, cells were seeded in a 96-well plate at a density of 10,000 cells per well (90 μL). After 24 h, 10 μL of the tested compounds were added to the culture media at desired concentration range and incubated for 72 h. After that 50 μL of the XTT solution was added (1 mg/mL XTT+0.383 mg/mL N-methyl dibenzopyrazine methyl sulfate). The absorbance was recorded at 495 nm following a 2 h-incubation with the dye. IC50 values were determined by non-linear regression method using GraphPad Prism version 5.00 for Windows (GraphPad Software, La Jolla, Calif., USA).
(§4) In addition, the anti-proliferative effect was tested against a human T-lymphoblastic leukemia line CCRF-CEM, promyelocytic leukemia HL-60 and cervical carcinoma HeLa S3 growing in liquid suspension. Cell viability was determined following a 3-day incubation using 2,3-bis-(2-methoxy-4-nitro-5-sulfophenyl)-2H-tetrazolium-5-carboxanilide (XTT) assay (ref.: Scudiero, D. A.; Shoemaker, R. H.; Paull, K. D.; Monks, A.; Tierney, S.; Nofziger, T. H.; Currens, M. J.; Seniff, D.; Boyd M. R. Evaluation of a Soluble Tetrazolium/Formazan Assay for Cell Growth and Drug Sensitivity in Culture Using Human and Other Tumor Cell Lines. Cancer Res. 1988, 48, 4827-4833).

BJ = assay: Cytostatic/cytotoxic MTT assay, BJ fibroblasts; conditions: Homo sapiens, 72 h, read-out: MTT, IC50 BJ
Text: as §1, §2

HepG2 = assay: XTT cytotoxicity assay, HepG2; conditions: Homo sapiens, read-out: XTT, IC50 HepG2
Protocol: as §3

HL60 = assay: XTT cytotoxicity assay, HL-60; conditions: Homo sapiens, read-out: XTT, IC50 HL60
Protocol: as §3, §4

| Compound | IC50 (HCT116; HCT-116, 72 h) [µM] | IC50 (HeLa S3; HeLa S3, 72 h) [µM] | IC50 (BJ) [µM] | IC50 (HepG2; HepG2, 72 h) [µM] | IC50 (HL60; HL-60, 72 h) [µM] | IC50 (HCT116; HCT-116, 72 h incubation) [µM] | IC50 (HeLa S3; HeLa S3, 72 h incubation) [µM] | IC50 (BJ; non-malignant fibroblasts) [µM] | IC50 (HepG2; HepG2, 72 h incubation) [µM] | IC50 (HL60; HL-60, 72 h incubation) [µM] |
| --- | --- | --- | --- | --- | --- | --- | --- | --- | --- | --- |
| CSc1ncnc2c1ccn2[C@@H]1O[C@H](CO)[C@@H](O)[C@H]1O [RC2, reference compound] | > 20 | 11.9 | > 100 | > 20 | 7.19 | – | – | – | – | – |
| COc1ncnc2c1ccn2[C@@H]1O[C@H](CO)[C@@H](O)[C@H]1O [RC1, reference compound] | – | – | – | – | – | > 20 | > 20 | > 100 | > 20 | > 20 |
| CSc1ncnc2c1c(-c1cccs1)cn2[C@@H]1O[C@H](CO)[C@@H](O)[C@H]1O [Compound 2c, 4-Methylsulfanyl-7-(β-D-ribofuranosyl)-5-(thiophen-2-yl)-7H-pyrrolo[2,3-d]pyrimidine] | – | – | – | – | – | > 20 | 1.96 | 96.9 | > 20 | 1.13 |
| Cc1ncnc2c1c(-c1ccoc1)cn2[C@@H]1O[C@H](CO)[C@@H](O)[C@H]1O [Compound 5b, 5-(Furan-3-yl)-4-methyl-7-(β-D-ribofuranosyl)-7H-pyrrolo[2,3-d]pyrimidine] | – | – | – | – | – | > 20 | > 20 | 89.2 | 5.32 | > 15 |
| CSc1ncnc2c1c(-c1cc3ccccc3o1)cn2[C@@H]1O[C@H](CO)[C@@H](O)[C@H]1O [Compound 2f, 5-(Benzofuran-2-yl)-4-methylsulfanyl-7-(β-D-ribofuranosyl)-7H-pyrrolo[2,3-d]pyrimidine] | – | – | – | – | – | > 20 | 1.93 | 67.2 | > 20 | 1.21 |
| C#Cc1cn([C@@H]2O[C@H](CO)[C@@H](O)[C@H]2O)c2ncnc(NC)c12 [Compound 3g, 5-Ethynyl-4-methylamino-7-(β-D-ribofuranosyl)-7H-pyrrolo[2,3-d]pyrimidine] | – | – | – | – | – | > 20 | > 20 | 86 | > 15 | 9.06 |
| C#Cc1cn([C@@H]2O[C@H](CO)[C@@H](O)[C@H]2O)c2ncnc(C)c12 [Compound 5g, 5-Ethynyl-4-methyl-7-(β-D-ribofuranosyl)-7H-pyrrolo[2,3-d]pyrimidine] | – | – | – | – | – | > 20 | 14.7 | 0.05 | 0.29 | 1.11 |
| COc1ncnc2c1c(I)cn2[C@@H]1O[C@H](CO)[C@@H](O)[C@H]1O [Compound 1h, 5-iodo-4-methoxy-7-(β-D-ribofuranosyl)-7H-pyrrolo[2,3-d]pyrimidine, reference compound] | – | – | – | – | – | > 20 | 14.3 | 91 | > 20 | 2.3 |
